Target: T1, human B1R (Homo sapiens, UniProt P46663)
T1 construct: expressed in transfected cells; host or cells: CHO K1 cells (Chinese Hamster Ovary), stably transfected
T1 sequence (P46663 1-353): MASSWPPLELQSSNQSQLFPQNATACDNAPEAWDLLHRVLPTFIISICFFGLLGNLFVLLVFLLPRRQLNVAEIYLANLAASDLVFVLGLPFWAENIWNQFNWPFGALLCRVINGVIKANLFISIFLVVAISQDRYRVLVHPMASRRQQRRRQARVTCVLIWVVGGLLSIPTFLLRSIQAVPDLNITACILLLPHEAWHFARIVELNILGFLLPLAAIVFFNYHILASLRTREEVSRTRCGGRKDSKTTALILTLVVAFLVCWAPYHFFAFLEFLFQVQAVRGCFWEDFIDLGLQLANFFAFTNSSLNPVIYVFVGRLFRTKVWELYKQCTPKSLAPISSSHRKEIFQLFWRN
Experiment: Functional assay at bradykinin receptor 1 (B1R): Ca2+ fluorescence (Fluo-4) in FLIPR/Novostar, antagonist mode
Format: cell-based
Conditions: test substance 10 µM, CHO K1 cells stably transfected with human B1R gene (hB1R-Zellen), agonist Lys-Des-Arg9-Bradykinin at EC80, % inhibition relative to maximal achievable inhibition; for inhibition at 10 µM: read-out: % Inhibierung (human B1R) bei 10 µM
Summary of the method: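 CHO K1 cells stably expressing human B1R were loaded with Fluo-4 and preincubated 6–20 min with test compound before Lys-Des-Arg9-bradykinin at its EC80. Peak fluorescence (ex 488/em 540 nm) gave % inhibition versus maximal inhibition; IC50 from several concentrations, n=2 or 3.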

Row | Molecule | inhibition at 10 µM [%] | % Inhibierung (human B1R) bei 10 µM [%]
1 | COc1cc(C)c(S(=O)(=O)Cc2noc(CC(=O)N(C)C3CCC(N4CCC(OC)CC4)CC3)n2)c(C)c1 (centres unmarked) [SC-64, 2-[3-[[(4-Methoxy-2,6-dimethyl-phenyl)sulfonyl]-methyl]-[1,2,4]oxadiazol-5-yl]-N-[4-(4-methoxy-piperidin-1-yl)-cyclohexyl]-N-methyl-acetamid] | 100 | 
2 | COc1cc(C)c(S(=O)(=O)Cc2noc(CC(=O)N(C)C3CCN(Cc4ccc(N5CCCC5)nc4)CC3)n2)c(C)c1 [SC-65, 2-[3-[[(4-Methoxy-2,6-dimethyl-phenyl)sulfonyl]-methyl]-[1,2,4]oxadiazol-5-yl]-N-methyl-N-[1-[(6-pyrrolidin-1-yl-pyridin-3-yl)-methyl]-piperidin-4-yl]-acetamid] | 100 | 
3 | COc1cc(C)c(S(=O)(=O)Cc2noc(CC(=O)N(C)C3CCN(c4ccnc(N(C)C)n4)CC3)n2)c(C)c1 [SC-66, N-[1-(2-Dimethylamino-pyrimidin-4-yl)-piperidin-4-yl]-2-[3-[[(4-methoxy-2,6-dimethyl-phenyl)-sulfonyl]-methyl]-[1,2,4]oxadiazol-5-yl]-N-methyl-acetamid] | 100 | 
4 | COc1cc(C)c(S(=O)(=O)Cc2noc(CC(=O)N(C)C3CCN(c4ccnc(N(C)C)c4)CC3)n2)c(C)c1 [SC-67, N-[1-(2-Dimethylamino-pyridin-4-yl)-piperidin-4-yl]-2-[3-[[(4-methoxy-2,6-dimethyl-phenyl)-sulfonyl]-methyl]-[1,2,4]oxadiazol-5-yl]-N-methyl-acetamid] | 100 | 
5 | COc1cc(C)c(S(=O)(=O)Cc2noc(C(=O)N(C)C3CCN(c4ccnc(N(C)C)n4)CC3)n2)c(C)c1 [SC-68, N-[1-(2-Dimethylamino-pyrimidin-4-yl)-piperidin-4-yl]-3-[[(4-methoxy-2,6-dimethyl-phenyl)sulfonyl]-methyl]-N-methyl-[1,2,4]oxadiazol-5-carbonsäure amid] | 100 | 
6 | COc1cc(C)c(S(=O)(=O)Cc2noc(C(=O)N(C)C3CCN(c4ccnc(N(C)C)c4)CC3)n2)c(C)c1 [SC-69, N-[1-(2-Dimethylamino-pyridin-4-yl)-piperidin-4-yl]-3-[[(4-methoxy-2,6-dimethyl-phenyl)sulfonyl]-methyl]-N-methyl-[1,2,4]oxadiazol-5-carbonsäure amid] | 100 | 
7 | COc1cc(C)c(S(=O)(=O)Cc2noc(CC(=O)N(C)C3CCN(c4ccncc4F)CC3)n2)c(C)c1 [SC-70, N-[1-(3-Fluor-pyridin-4-yl)-piperidin-4-yl]-2-[3-[[(4-methoxy-2,6-dimethyl-phenyl)sulfonyl]-methyl]-[1,2,4]oxadiazol-5-yl]-N-methyl-acetamid] | 100 | 
8 | COc1cc(C)c(S(=O)(=O)Cc2noc(CC(=O)N(C)C3CCN(Cc4cc(C)no4)CC3)n2)c(C)c1 [SC-72, 2-[3-[[(4-Methoxy-2,6-dimethyl-phenyl)sulfonyl]-methyl]-[1,2,4]oxadiazol-5-yl]-N-methyl-N-[1-[(3-methyl-isoxazol-5-yl)-methyl]-piperidin-4-yl]-acetamid] | 100 | 
9 | COc1cc(C)c(S(=O)(=O)Cc2noc(C(=O)N(C)C3CCN(c4ccncc4F)CC3)n2)c(C)c1 [SC-82, N-[1-(3-Fluor-pyridin-4-yl)-piperidin-4-yl]-3-[[(4-methoxy-2,6-dimethyl-phenyl)sulfonyl]-methyl]-N-methyl-[1,2,4]oxadiazol-5-carbonsäure amid] | 98 | 
10 | COc1cc(C)c(S(=O)(=O)Cc2c(C)nn(CC(=O)N(C)[C@H]3CCC[C@@H](N4CCN(C)CC4)C3)c2C)c(C)c1 [SC-83, 2-[4-[[(4-Methoxy-2,6-dimethyl-phenyl)sulfonyl]-methyl]-3,5-dimethyl-1H-pyrazol-1-yl]-N-methyl-N-[(1S,3R)-3-(4-methyl-piperazin-1-yl)-cyclohexyl]-acetamid] | 100 | 
11 | COc1cc(C)c(S(=O)(=O)Cc2cn(CC(=O)N(C)[C@H]3CCC[C@@H](N4CCN(C)CC4)C3)nn2)c(C)c1 [SC-84, 2-[4-[[(4-Methoxy-2,6-dimethyl-phenyl)sulfonyl]-methyl]-1H-[1,2,3]triazol-1-yl]-N-methyl-N-[(1S,3R)-3-(4-methyl-piperazin-1-yl)-cyclohexyl]-acetamid] | 100 | 
12 | COc1cc(C)c(S(=O)(=O)Cc2noc(CC(=O)N(C)C3CCN(c4ccncc4)C(=O)C3)n2)c(C)c1 (centres unmarked) [SC-85, 2-[3-[[(4-Methoxy-2,6-dimethyl-phenyl)sulfonyl]-methyl]-[1,2,4]oxadiazol-5-yl]-N-methyl-N-(2-oxo-1-pyridin-4-yl-piperidin-4-yl)-acetamid] | 100 | 
13 | COc1cc(C)c(S(=O)(=O)Cc2nnc(C(=O)N3CCC(CN4CCN(C)CC4)C3)o2)c(C)c1 (centres unmarked) [SC-86, [5-[[(4-Methoxy-2,6-dimethyl-phenyl)sulfonyl]-methyl]-[1,3,4]oxadiazol-2-yl]-[3-[(4-methyl-piperazin-1-yl)-methyl]-pyrrolidin-1-yl]-methanon] | 100 | 
14 | COc1cc(C)c(S(=O)(=O)Cc2nnc(C(=O)NC3CCNCC3(C)C)o2)c(C)c1 (centres unmarked) [SC-87, N-(3,3-Dimethyl-piperidin-4-yl)-5-[[(4-methoxy-2,6-dimethyl-phenyl)sulfonyl]-methyl]-[1,3,4]oxadiazol-2-carbonsäure amid] | 98 | 
15 | COc1cc(C)c(S(=O)(=O)Cc2nc(C(=O)N3CCC(CN4CCN(C)CC4)C3)no2)c(C)c1 (centres unmarked) [SC-88, [5-[[(4-Methoxy-2,6-dimethyl-phenyl)sulfonyl]-methyl]-[1,2,4]oxadiazol-3-yl]-[3-[(4-methyl-piperazin-1-yl)-methyl]-pyrrolidin-1-yl]-methanon] | 100 | 
16 | COc1cc(C)c(S(=O)(=O)Cc2nc(C(=O)N(C)[C@H]3CCC[C@@H](N4CCN(C)CC4)C3)no2)c(C)c1 [SC-89, 5-[[(4-Methoxy-2,6-dimethyl-phenyl)sulfonyl]-methyl]-N-methyl-N-[(1S,3R)-3-(4-methyl-piperazin-1-yl)-cyclohexyl]-[1,2,4]oxadiazol-3-carbonsäure amid] | 100 | 
17 | COc1cc(C)c(S(=O)(=O)Cc2c(C)nn(CC(=O)N3CCC(CN4CCN(C)CC4)C3)c2C)c(C)c1 (centres unmarked) [SC-92, 2-[4-[[(4-Methoxy-2,6-dimethyl-phenyl)sulfonyl]-methyl]-3,5-dimethyl-1H-pyrazol-1-yl]-1-[3-[(4-methyl-piperazin-1-yl)-methyl]-pyrrolidin-1-yl]-ethanon] | 90 | 
18 | COc1cc(C)c(S(=O)(=O)Cc2cn(CC(=O)N3CCC(CN4CCN(C)CC4)C3)nn2)c(C)c1 (centres unmarked) [SC-93, 2-[4-[[(4-Methoxy-2,6-dimethyl-phenyl)sulfonyl]-methyl]-1H-[1,2,3]triazol-1-yl]-1-[3-[(4-methyl-piperazin-1-yl)-methyl]-pyrrolidin-1-yl]-ethanon] | 100 | 
19 | N-[1-(4-Fluor-cyclohexyl)-3,3-dimethyl-piperidin-4-yl]-2-[3-[[(4-methoxy-2,6-dimethyl-phenyl)sulfonyl]-methyl]-[1,2,4]oxadiazol-5-yl]-acetamid [SC-48] |  | 100
20 | N-[4-(Cyclopropylamino)-2,2-dimethyl-cyclohexyl]-2-[3-[[(2,3-dichlor-phenyl)sulfonyl]-methyl]-[1,2,4]oxadiazol-5-yl]-acetamid [CC-123] |  | 99

Source: EP2857388A1, “Azoles containing sulfone” (Grünenthal GmbH, priority 2013, dated 2015)
